Source: patent publication US20260132126A1, “IMIDAZOLE DERIVATIVES” (SANWA KAGAKU KENKYUSHO CO., LTD., priority 2022, published 2026)

Biological target: T1, human α1A adrenergic receptor (Homo sapiens, UniProt P35348)
T1 construct: host or cells: GeneBLAzer ADRA1A-NFAT-bla CHO-K1 cells
T1 sequence (P35348 1-466): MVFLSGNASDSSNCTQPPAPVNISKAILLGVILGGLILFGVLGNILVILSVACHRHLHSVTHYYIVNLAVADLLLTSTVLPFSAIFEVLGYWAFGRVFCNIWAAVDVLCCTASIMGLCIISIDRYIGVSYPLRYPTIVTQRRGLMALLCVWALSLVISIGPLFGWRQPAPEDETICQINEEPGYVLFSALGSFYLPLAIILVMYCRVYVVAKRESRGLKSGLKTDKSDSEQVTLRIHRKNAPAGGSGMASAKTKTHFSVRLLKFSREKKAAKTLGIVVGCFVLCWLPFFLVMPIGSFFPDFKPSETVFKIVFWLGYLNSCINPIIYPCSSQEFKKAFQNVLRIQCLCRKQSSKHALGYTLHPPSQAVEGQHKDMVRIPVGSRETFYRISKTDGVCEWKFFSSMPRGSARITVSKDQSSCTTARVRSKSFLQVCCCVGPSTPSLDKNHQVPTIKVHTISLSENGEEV
Assay: Ca2+ mobilization assay in human α1A adrenergic receptor-expressing cells
Assay type: cell-based
Parameters: Emax: dose or concentration left out as unconfirmed
Details: for Emax at 10 µM: % activation at 10 μmol/L test compound, 100 μmol/L norepinephrine = 100%, well without test compound = 0%; for EC50: CHO-K1 cells expressing human α1A adrenergic receptor, Fluo-4 fluorescence, concentration giving 50% response of Emax, 4-parameter logistic regression
Procedure: CHO-K1 cells that highly express a human α1A adrenergic receptor (GeneBLAzer™ ADRA1A-NFAT-bla CHO-K1 Cells) were purchased from Thermo Fisher Scientific, Inc., and cultured according to the instructions.
The cultured human α1A adrenergic receptor-expressing cells were washed with D-PBS, then replaced with a loading buffer (2 μmol/L Fluo-4/AM, 1× PowerLoad, 2.5 mmol/L Probenecid-containing DMEM (high-glucose)) and incubated at 37° C. for 60 minutes in a 5% CO2 incubator. The cells were detached using 0.05% trypsin-EDTA solution, and suspended in an assay buffer ([…], 0.054 mol/L KCl, 1.8 mmol/L CaCl2), 1 mmol/L MgSO4, 0.11 mol/L glucose, 0.01 mol/L NaH2PO4·2H2O, […], pH 7.3) to be 500,000 cells/mL.
Test compounds were dissolved in dimethylsulfoxide, and diluted with an assay buffer containing 0.3% BSA. The final concentrations of the test compounds were set to fall within the range of 0.1 nmol/L to 10 μmol/L. As a reference compound, norepinephrine was set to have a final concentration within the range of 0.01 nmol/L to 100 μmol/L.
On a 384-well clear bottom black plate coated with poly-D-lysine (Corning Inc.), the above-described cell-suspended solution was dispersed in 40 μL each (20,000 cells/well) and allowed to stand for 10 minutes. The plate was transferred to a fluorescent imaging plate reader (FDSS7000, Hamamatsu Photonics K.K.), and measurements were started. After 1 minute from the start of the measurements, 20 μL of the test compound solutions or norepinephrine solution (total amount: 60 μL/well) was added to each well of the plate (final concentration: 0.1% BSA, 0.1% dimethylsulfoxide), and the temporal change in fluorescence intensity of Fluo-4 was further measured for 5 minutes (Ex 480 nm/Em 540 nm).
The normalized values (% activation) were used for subsequent analyses.
Emax values and EC50 values were calculated by creating a concentration-response curve of the test compounds using a 4-parameter logistic regression with XLFit, Emax value being defined as % activation of test compound at the concentration of 10 μmol/L, and EC50 value being defined as the concentration in which 50% response of the Emax values is shown.

| Compound | Emax at 10 µM | EC50 | Emax |
| --- | --- | --- | --- |
| c1ccc(-c2cncnc2)c(NCc2c[nH]cn2)c1 [Example 10, N-((1H-imidazol-4-yl)methyl)-2-(pyrimidin-5-yl)aniline] | 103% | 3.8 nM | – |
| c1ccc(-c2cncs2)c(OCc2c[nH]cn2)c1 [Example 71] | – | 1.9 nM | 103% |
| c1cc(-c2cscc2NCc2c[nH]cn2)[nH]n1 [Example 8, N-((1H-imidazol-4-yl)methyl)-4-(1H-pyrazol-5-yl)thiophen-3-amine] | 96% | 1.2 nM | – |
| COc1cccc(-c2cscc2NCc2c[nH]cn2)n1 [Example 22, N-((1H-imidazol-4-yl)methyl)-4-(6-methoxypyridin-2-yl)thiophen-3-amine] | 88% | 1.2 nM | – |
| COc1cccc(-c2ccccc2NCc2c[nH]cn2)n1 [Example 32, N-((1H-imidazol-4-yl)methyl)-2-(6-methoxypyridin-2-yl)aniline] | 100% | 1.1 nM | – |
| COc1cncc(-c2ccccc2OCc2c[nH]cn2)n1 [Example 77] | – | 0.6 nM | 92% |
| c1csc(-c2sccc2NCc2c[nH]cn2)c1 [Example 2, N-((1H-imidazol-4-yl)methyl)-[2,2′-bithiophen]-3-amine] | 105% | 0.9 nM | – |
| COc1n[nH]cc1-c1ccc(C)cc1NCc1c[nH]cn1 [Example 33, N-((1H-Imidazol-4-yl)methyl)-2-(3-methoxy-1H-pyrazol-4-yl)-5-methylaniline] | 97% | 3.9 nM | – |
| Fc1cccnc1-c1cscc1NCc1c[nH]cn1 [Example 29, N-((1H-imidazol-4-yl)methyl)-4-(3-fluoropyridin-2-yl)thiophen-3-amine] | 96% | 2.3 nM | – |
| COc1cccnc1-c1ccccc1NCc1c[nH]cn1 [Example 28, N-((1H-imidazol-4-yl)methyl)-2-(3-methoxypyridin-2-yl)aniline] | 96% | 4.9 nM | – |
| c1csc(-c2cscc2NCc2c[nH]cn2)c1 [Example 1] | 103% | 0.8 nM | – |
| COc1ccncc1-c1cscc1NCc1c[nH]cn1 [Example 4, N-((1H-imidazol-4-yl)methyl)-4-(4-methoxypyridin-3-yl)thiophen-3-amine] | 93% | 0.6 nM | – |
| COc1cccc(-c2ccccc2NC(C)c2c[nH]cn2)n1 (stereo not drawn) [Example 37, N-(1-(1H-imidazol-4-yl)ethyl)-2-(6-methoxypyridin-2-yl)aniline] | – | 2.1 nM | 109% |
| Cc1ncncc1-c1ccccc1NCc1c[nH]cn1 [Example 19, N-((1H-imidazol-4-yl)methyl)-2-(4-methylpyrimidin-5-yl)aniline] | 102% | 3.1 nM | – |
| CC(Nc1ccccc1-c1cscn1)c1c[nH]cn1 (stereo not drawn) [Example 38, N-(1-(1H-imidazol-4-yl)ethyl)-2-(thiazol-4-yl)aniline] | – | 0.8 nM | 107% |
| COc1ncncc1-c1ccccc1OCc1c[nH]cn1 [Example 75] | – | 0.2 nM | 95% |
| COc1ncncc1-c1cscc1NCc1c[nH]cn1 [Example 23, N-((1H-imidazol-4-yl)methyl)-4-(4-methoxypyrimidin-5-yl)thiophen-3-amine] | 95% | 0.1 nM | – |
| c1ccc(-c2ccccc2NCc2c[nH]cn2)nc1 [Example 27, N-((1H-imidazol-4-yl)methyl)-2-(pyridin-2-yl)aniline] | 100% | 2.3 nM | – |
| Cc1scnc1-c1cscc1NCc1c[nH]cn1 [Example 24, N-((1H-imidazol-4-yl)methyl)-4-(5-methylthiazol-4-yl)thiophen-3-amine] | 101% | 0.2 nM | – |
| c1ccc(-c2cscc2NCc2c[nH]cn2)nc1 [Example 30, N-((1H-imidazol-4-yl)methyl)-4-(pyridin-2-yl)thiophen-3-amine] | 97% | 0.7 nM | – |
| c1ccc(-c2cscn2)c(NCc2c[nH]cn2)c1 [Example 15, N-((1H-imidazol-4-yl)methyl)-2-(thiazol-4-yl)aniline] | 98% | 0.1 nM | – |
| COc1ccnc(-c2cscc2NCc2c[nH]cn2)c1 [Example 21, N-((1H-imidazol-4-yl)methyl)-4-(4-methoxypyridin-2-yl)thiophen-3-amine] | 92% | 0.2 nM | – |
| c1cncc(-c2sccc2NCc2c[nH]cn2)c1 [Example 7, N-((1H-imidazol-4-yl)methyl)-2-(pyridin-3-yl)thiophen-3-amine] | 92% | 4.5 nM | – |
| c1ccc(-c2nccs2)c(OCc2c[nH]cn2)c1 [Example 70] | – | 2.4 nM | 93% |
| Cc1ncsc1-c1cscc1NCc1c[nH]cn1 [Example 18, N-((1H-imidazol-4-yl)methyl)-4-(4-methylthiazol-5-yl)thiophen-3-amine] | 88% | 5.3 nM | – |
| COc1n[nH]cc1-c1ccc(F)cc1NCc1c[nH]cn1 [Example 34, N-((1H-imidazol-4-yl)methyl)-5-fluoro-2-(3-methoxy-1H-pyrazol-4-yl)aniline] | 91% | 1.3 nM | – |
| COc1c(F)cncc1-c1ccccc1OCc1c[nH]cn1 [Example 74] | – | 0.5 nM | 96% |
| Fc1cncc(-c2cscc2NCc2c[nH]cn2)c1 [Example 6, N-((1H-imidazol-4-yl)methyl)-4-(5-fluoropyridin-3-yl)thiophen-3-amine] | 92% | 1.1 nM | – |
| c1ccc(-c2cnccn2)c(NCc2c[nH]cn2)c1 [Example 26, N-((1H-imidazol-4-yl)methyl)-2-(pyrazin-2-yl)aniline] | 105% | 1.2 nM | – |

Second part, led by results:

| Emax at 10 µM | EC50 | Compound | Emax |
| --- | --- | --- | --- |
| 96% | 6.1 nM | Cc1ccc(-c2cnccc2C)c(OCc2c[nH]cn2)c1 [Example 57] | – |
| 92% | 3.4 nM | c1nc(CNc2cscc2-c2ccoc2)c[nH]1 [Example 41, N-((1H-Imidazol-4-yl)methyl)-4-(furan-3-yl)thiophen-3-amine] | – |
| 110% | 0.9 nM | N#Cc1n[nH]cc1-c1ccccc1OCc1c[nH]cn1 [Example 50] | – |
| 105% | 0.8 nM | Cc1ccc(-c2c[nH]nc2C#N)c(OCc2c[nH]cn2)c1 [Example 56] | – |
| 104% | 6.9 nM | c1ccc(-c2ccsc2)c(SCc2c[nH]cn2)c1 [Example 82] | – |
| 106% | 9 nM | c1ccc(-c2cn[nH]c2)c(SCc2c[nH]cn2)c1 [Example 81] | – |
| 104% | 3 nM | c1cncc(-c2ccccc2OCc2c[nH]cn2)c1 [Example 48] | – |
| 98% | 6.7 nM | Cc1ccc(-c2cncnc2C)c(OCc2c[nH]cn2)c1 [Example 65] | – |
| 108% | 4.5 nM | CC(Oc1ccccc1-c1cccs1)c1c[nH]cn1 (single isomer, unassigned; (+)) [Example 79, (+)-4-(1-(2-(Thiophen-2-yl)phenoxy)ethyl)-1H-imidazole] | – |
| 90% | 0.6 nM | COc1ncccc1-c1cscc1NCc1c[nH]cn1 [Example 43] | – |
| 91% | 20 nM | c1ccc(-c2cnco2)c(NCc2c[nH]cn2)c1 [compound 1, N-((1H-imidazol-4-yl)methyl)-2-(oxazol-5-yl) aniline, reference compound] | – |
| 108% | 2.2 nM | c1ccc(-c2ccsc2)c(OCc2c[nH]cn2)c1 [Example 44, 4-((2-(Thiophen-3-yl)phenoxy)methyl)-1H-imidazole] | – |
| 86% | 3.7 nM | CC(Nc1ccccc1-c1cccnc1)c1c[nH]cn1 (single isomer, unassigned; (+)) [Example 36, (+)-N-(1-(1H-Imidazol-4-yl)ethyl)-2-(pyridin-3-yl)aniline] | – |
